Assay results from patent US20240025906A1 (NEURON23, INC., priority 2022, published 2024).

Columns and labels:
[1] = test system: JAK1/TYK2 pSTAT5 (Tyr694/699) in THP-1 cell line; experiment: IFNa-stimulated JAK1/TYK2 pSTAT5 (Tyr694/699) inhibition cellular assay, AlphaLISA; assay type: cell-based; settings: Homo sapiens; THP-1 cells, IFNa-stimulated, AlphaLISA (Assay B); read-out: Cellular_THP1_IFNa-pSTATS_TYK2
Summary of the method: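 An eight-point 6-fold titration of compound (0.04–10000 nM final) is given to THP-1 cells for 1 h before 30 min of IFNa exposure. Phospho-STAT5 is read by AlphaLISA at 615 nm. IC50 values are derived by logistic regression with bottom set to 0 and Hill slope set to −1.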

TYK2 JH2 = molecular target: T1, TYK2 JH2 (Homo sapiens, UniProt P29597); experiment: TYK2 JH2 binding assay (KINOMEscan KdELECT competitive binding); settings: TYK2 JH2 domain, KINOMEscan KdELECT (Assay A); read-out: Biochemical TYK2_DiscoverX_JH2_BND_Kd
T1 construct: purchased DiscoverX (KINOMEscan KdELECT service); host or cells: E. coli BL21-derived (T7 phage display) or HEK-293
T1 sequence (P29597 589-875 limits assumed): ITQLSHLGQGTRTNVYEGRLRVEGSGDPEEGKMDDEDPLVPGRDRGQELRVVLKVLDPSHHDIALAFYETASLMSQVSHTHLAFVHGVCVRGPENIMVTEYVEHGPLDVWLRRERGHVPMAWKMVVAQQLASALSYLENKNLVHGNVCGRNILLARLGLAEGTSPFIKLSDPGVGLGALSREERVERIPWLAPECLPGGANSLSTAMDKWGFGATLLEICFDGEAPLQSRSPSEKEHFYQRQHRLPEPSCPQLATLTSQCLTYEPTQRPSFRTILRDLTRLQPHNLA
Summary of the method: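 JH2-domain fragment, expressed as T7 phage tag in BL21-derived E. coli or DNA-tagged from HEK-293, competed with test compound against bead-immobilized biotinylated ligand in binding buffer (0.9% DMSO). 1 h shaking at room temperature; bound kinase eluted with 0.5 μM free ligand and quantified by qPCR. Kd from 11-point 3-fold dilutions.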

IC50 [1] [nM] | Kd (TYK2 JH2) [nM] | SMILES
≤ 500 | ≤ 100 | CNc1ncc(C#Cc2cnccn2)c2cc(NC(=O)C3CC3)ncc12 [Example 632, N-(8-(methylamino)-5-(pyrazin-2-ylethynyl)-2,7-naphthyridin-3-yl)cyclopropanecarboxamide]
≤ 500 | ≤ 100 | CNc1ncc(C#Cc2cnc3ccccn23)c2cc(NC(=O)C3CC3)ncc12 [Example 633, N-(5-(imidazo[1,2-a]pyridin-3-ylethynyl)-8-(methylamino)-2,7-naphthyridin-3-yl)cyclopropanecarboxamide]
≤ 500 | ≤ 100 | CNc1ncc(C#Cc2ccc(OC)cc2Cl)c2cc(NC(=O)C3CC3)ncc12 [Example 635, N-(5-((2-chloro-4-methoxyphenyl)ethynyl)-8-(methylamino)-2,7-naphthyridin-3-yl)cyclopropanecarboxamide]
≤ 500 | ≤ 100 | CNc1ncc(C#Cc2ccc(S(C)(=O)=O)cn2)c2cc(NC(=O)C3CC3)ncc12 [Example 640, N-(8-(methylamino)-5-((5-(methylsulfonyl)pyridin-2-yl)ethynyl)-2,7-naphthyridin-3-yl)cyclopropanecarboxamide]
≤ 500 | ≤ 100 | CNc1ncc(C#Cc2cccnn2)c2cc(NC(=O)C3CC3)ncc12 [Example 641, N-(8-(methylamino)-5-(pyridazin-3-ylethynyl)-2,7-naphthyridin-3-yl)cyclopropanecarboxamide]
≤ 500 | ≤ 100 | CNc1ncc(C#Cc2ncc(OC)cc2Cl)c2cc(NC(=O)C3CC3)ncc12 [Example 643, N-(5-((3-chloro-5-methoxypyridin-2-yl)ethynyl)-8-(methylamino)-2,7-naphthyridin-3-yl)cyclopropanecarboxamide]
≤ 500 | ≤ 100 | CNc1ncc(C#Cc2ccc(OC(F)(F)F)cn2)c2cc(NC(=O)C3CC3)ncc12 [Example 644, N-(8-(methylamino)-5-((5-(trifluoromethoxy)pyridin-2-yl)ethynyl)-2,7-naphthyridin-3-yl)cyclopropanecarboxamide]

Second part, the compound before the results:

SMILES | IC50 [1] [nM] | Kd (TYK2 JH2) [nM]
CNc1ncc(C#Cc2ccc(OC(C)C)cc2)c2cc(NC(=O)C3CC3)ncc12 [Example 634, N-(5-((4-isopropoxyphenyl)ethynyl)-8-(methylamino)-2,7-naphthyridin-3-yl)cyclopropanecarboxamide] | ≤ 500 | ≤ 100
CNc1ncc(C#Cc2c(Cl)cc(OC)cc2Cl)c2cc(NC(=O)C3CC3)ncc12 [Example 636, N-(5-((2,6-dichloro-4-methoxyphenyl)ethynyl)-8-(methylamino)-2,7-naphthyridin-3-yl)cyclopropanecarboxamide] | > 500 | ≤ 100
CNc1ncc(C#Cc2ccc(S(=O)(=O)C3CC3)cc2)c2cc(NC(=O)C3CC3)ncc12 [Example 637, N-(5-((4-(cyclopropylsulfonyl)phenyl)ethynyl)-8-(methylamino)-2,7-naphthyridin-3-yl)cyclopropanecarboxamide] | ≤ 500 | ≤ 100
CNc1ncc(C#Cc2ccc(OC3CC3)cc2)c2cc(NC(=O)C3CC3)ncc12 [Example 638, N-(5-((4-cyclopropoxyphenyl)ethynyl)-8-(methylamino)-2,7-naphthyridin-3-yl)cyclopropanecarboxamide] | ≤ 500 | ≤ 100
CNc1ncc(C#Cc2ccc(N3CCOCC3)cc2C)c2cc(NC(=O)C3CC3)ncc12 [Example 639, N-(5-((2-methyl-4-morpholinophenyl)ethynyl)-8-(methylamino)-2,7-naphthyridin-3-yl)cyclopropanecarboxamide] | ≤ 500 | ≤ 100
CNc1ncc(C#Cc2ccc3oc(CO)cc3c2)c2cc(NC(=O)C3CC3)ncc12 [Example 642, N-(5-((2-(hydroxymethyl)benzofuran-5-yl)ethynyl)-8-(methylamino)-2,7-naphthyridin-3-yl)cyclopropanecarboxamide] | ≤ 500 | ≤ 100
